In article PMC10791743, “Selective CK1α degraders exert antiproliferative activity against a broad range of human cancer cell lines” (Nature Communications, 2024):
Several values for one entry are separate records, joined by “and”; a condition that tells them apart may be missing. Equal values may be shown once.

What was measured:
[1] = test system: CRBN−/− MOLM-13 cells; test: Wild type versus CRBN−/− MOLM-13 cells (viability, CRBN dependence); format: cell-based, human; parameters: key to cell viability, dose-response replicate values: % viability = 100 − % activity (RLU normalized to negative control); details: for cell viability, dose-response replicate values: MOLM-13 CRBN KO
Description: Having identified SJ7095 as a compound with a potent antiproliferative effect in MOLM-13 cells, we next examined whether the observed effect was CRBN-dependent. […] In an orthogonal approach, we tested SJ7095 in wild-type and CRBN-knockout MOLM-13 cells in a cell viability assay (Supplementary Fig. 1b).
CRBN^−/− MOLM-13 cells were created using CRISPR-Cas9 technology. Briefly, 1 million MOLM-13 cells were transiently transfected with precomplexed ribonuclear proteins (RNPs) consisting of 400 pmol of chemically modified sgRNA (Synthego), 135pmol of SpCas9 protein (St. Jude Protein Production Core), and 500 ng of pMaxGFP (Lonza) via nucleofection (Lonza, 4D-Nucleofector™ X-unit) using solution SF and program EO100 in a 100 µl cuvette according to the manufacturer’s recommended protocol. Transfected cells (GFP+) were single-cell sorted by flow cytometry (St. Jude Flow Cytometry and Cell Sorting Shared Resource) into 96-well tissue culture-treated plates 5 days post nucleofection. Cells were clonally expanded and screened for the desired targeted modification (out-of-frame indels) via targeted deep sequencing using gene-specific primers with partial Illumina adapter overhangs as previously described. Genotyping of clones was performed using CRIS.py[59]. Knockout clones were identified as clones containing only out-of-frame indels. PowerPlex® Fusion System (Promega) was used to confirm final clone identification (Hartwell Center for Biotechnology at St. Jude). All clones tested negative for mycoplasma by the MycoAlert^TMPlus Mycoplasma Detection Kit (Lonza). CRBN knockout confirmed by immunoblot (Supplementary Material).
MOLM-13 cells were plated in Corning 8804BC white 384-well assay plates at the appropriate cell number per well and incubated overnight at 37 °C in a humidified 5 % CO2 incubator. Compounds were transferred to the assay plate from a dose-response plate using a Labcyte Echo 650 Acoustic Liquid Handler (Beckman Coulter , USA). Cytotoxicity was determined following 72 h of incubation using Promega’s CellTiter-Glo reagent according to the manufacturer’s recommendation.
Luminescence was measured on the Envision plate reader (PerkinElmer, USA). Raw luminescence relative light unit (RLU) values for each compound at each concentration were normalized to obtain % activity using the following equation (1): 100 × [(mean(negctrl) – compound)/(mean (negctrl) – mean (posctrl))]. The % activity was converted to % viability using the following equation (2):
(100 – % activity), and then pooled from replicate experiments prior to fitting. Here, negctrl and posctrl refer to the negative (DMSO) and positive controls (staurosporine) on each plate. Dose-response curves were fit to the Hill equation using the GraphPad Prism (version 10). […]

[2] = target: CK1α (Homo sapiens, UniProt P48729+Q96SW2); test: CK1α HiBiT live-cell kinetic degradation assay (HEK293 cells); format: cell-based; parameters: engineered by CRISPR/Cas9 to express endogenous CK1α (HEK293 cells) with a HiBiT tag; details: for Dmax at 0.111 µM: CK1, 0.111 uM; for Dmax at 0.111 µM / Dmax at 0.333 µM / Dmax at 1 µM / Dmax at 3 µM / Dmax at 10 µM: read-out: CK1a Percent Maximum Degradation; for Dmax at 0.333 µM: CK1, 0.333 uM; for Dmax at 1 µM: CK1, 1 uM; for Dmax at 3 µM: CK1, 3 uM; for Dmax at 10 µM: CK1, 10 uM; for DC50: HEK293, at 4 h
Chain of CK1α (P48729 whole entry): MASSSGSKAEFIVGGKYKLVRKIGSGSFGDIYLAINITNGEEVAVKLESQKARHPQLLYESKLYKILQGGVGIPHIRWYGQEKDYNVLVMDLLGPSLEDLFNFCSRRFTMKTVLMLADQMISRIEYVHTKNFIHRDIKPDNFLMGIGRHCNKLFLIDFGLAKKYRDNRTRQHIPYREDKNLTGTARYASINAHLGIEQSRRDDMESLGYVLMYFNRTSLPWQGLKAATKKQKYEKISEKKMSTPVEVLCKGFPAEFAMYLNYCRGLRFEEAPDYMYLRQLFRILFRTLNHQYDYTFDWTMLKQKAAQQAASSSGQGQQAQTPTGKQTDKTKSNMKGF
Chain of CK1α (Q96SW2 whole entry): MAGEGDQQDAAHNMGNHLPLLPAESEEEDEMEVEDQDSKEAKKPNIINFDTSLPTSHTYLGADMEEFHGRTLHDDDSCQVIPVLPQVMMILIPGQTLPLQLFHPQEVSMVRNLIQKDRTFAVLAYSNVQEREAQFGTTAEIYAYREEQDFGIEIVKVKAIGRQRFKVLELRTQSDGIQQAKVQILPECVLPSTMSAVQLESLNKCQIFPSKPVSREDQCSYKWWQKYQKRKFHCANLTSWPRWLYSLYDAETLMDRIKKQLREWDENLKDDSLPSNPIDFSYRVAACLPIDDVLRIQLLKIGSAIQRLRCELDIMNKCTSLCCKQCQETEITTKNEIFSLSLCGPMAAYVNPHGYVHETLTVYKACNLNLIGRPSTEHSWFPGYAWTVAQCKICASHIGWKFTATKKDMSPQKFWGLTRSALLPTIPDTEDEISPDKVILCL
Chain of CK1α (Q16531 whole entry partner): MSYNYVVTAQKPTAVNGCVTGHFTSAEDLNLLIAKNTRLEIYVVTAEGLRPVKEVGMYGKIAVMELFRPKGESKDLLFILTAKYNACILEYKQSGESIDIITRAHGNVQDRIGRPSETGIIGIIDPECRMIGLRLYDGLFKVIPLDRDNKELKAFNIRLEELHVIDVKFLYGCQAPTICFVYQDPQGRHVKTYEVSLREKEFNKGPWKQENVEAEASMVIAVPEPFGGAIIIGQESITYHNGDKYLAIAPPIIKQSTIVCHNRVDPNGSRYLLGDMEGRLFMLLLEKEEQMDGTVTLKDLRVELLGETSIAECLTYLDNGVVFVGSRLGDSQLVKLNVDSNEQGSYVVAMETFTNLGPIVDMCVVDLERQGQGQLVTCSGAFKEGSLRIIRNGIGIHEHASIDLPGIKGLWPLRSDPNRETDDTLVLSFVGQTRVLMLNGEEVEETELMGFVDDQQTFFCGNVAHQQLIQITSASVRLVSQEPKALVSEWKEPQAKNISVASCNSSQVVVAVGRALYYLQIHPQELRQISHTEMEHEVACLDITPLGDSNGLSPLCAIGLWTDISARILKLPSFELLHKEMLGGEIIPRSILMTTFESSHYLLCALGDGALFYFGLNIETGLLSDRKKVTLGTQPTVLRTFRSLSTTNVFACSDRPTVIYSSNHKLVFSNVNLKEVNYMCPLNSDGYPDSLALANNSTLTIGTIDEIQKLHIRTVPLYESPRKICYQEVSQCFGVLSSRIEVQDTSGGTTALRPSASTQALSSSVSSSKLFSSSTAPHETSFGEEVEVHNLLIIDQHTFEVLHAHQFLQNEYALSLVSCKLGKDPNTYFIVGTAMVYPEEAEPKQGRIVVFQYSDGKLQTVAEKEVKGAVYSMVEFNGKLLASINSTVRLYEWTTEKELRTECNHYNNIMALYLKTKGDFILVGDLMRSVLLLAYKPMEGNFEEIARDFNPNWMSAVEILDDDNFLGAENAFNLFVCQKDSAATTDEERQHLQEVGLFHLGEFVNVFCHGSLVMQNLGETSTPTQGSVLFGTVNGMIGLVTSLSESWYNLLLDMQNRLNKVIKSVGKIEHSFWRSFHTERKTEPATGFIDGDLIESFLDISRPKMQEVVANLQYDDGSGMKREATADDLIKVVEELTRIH
Description: To measure cellular protein levels, we used cell lines that have been engineered by CRISPR/Cas9 to express endogenous CK1α (HEK293 cells) or IKZF1 (Jurkat cells) with a HiBiT tag, which when coupled with LgBiT expression forms NanoBiT, a bioluminescent protein that can be used for kinetic studies of protein degradation. […] Cell viability was also monitored with CellTiter Glo 2.0 (Promega) at the completion of the experiment to ensure that loss of protein was not a consequence of a loss of cell viability.
IKZF1-HiBiT Jurkat LgBiT stable cells were seeded at 60,000 cells/well in 50% growth media/50% CO2 independent medium supplemented with 10% FBS and 1× Endurazine substrate. […] A dose–response curve was generated by performing 3-fold dilutions of each compound including a DMSO-only control in growth media. For live cell kinetic degradation assays, diluted compounds were added to CK1α and β-catenin plates and placed in a GloMax Discover (Promega, Cat. #GM3000) preheated to 37 °C or added to IKZF1 plates and placed in a CLARIOstar Plus (BMG LABTECH) preheated to 37 °C.
Relative protein level was determined based on normalization to the DMSO control and reported at Fractional RLUs. Degradation rate and degradation maximums were calculated from Fractional RLUs as previously described[38] using GraphPad Prism software. β-catenin stabilization time of onset for each concentration curve was calculated in GraphPad Prism by fitting an unconstrained plateau followed by one phase association model using the equation below (Y = IF(X < X0, Y0,Y0+(Plateau−Y0)*(1−exp(−K*(X−X0))))). The parameter, X0 was used as time of onset for each compound concentration.

For `O=C1CCC(N2Cc3c(CNC(=O)c4ccc(F)cc4)cccc3C2=O)C(=O)N1` (stereo not drawn) [SJ7095], the “Antiproliferative activity in wild-type vs CRBN-knockout MOLM-13” value [1] was “CRBN dependent”, the “cell viability, dose-response replicate values” (“cell viability” for short) ([1]; Concentration 0.00019646) was 106.764 and 101.3 and 98.2605 and the “cell viability” value ([1]; Concentration 0.00058939) was 112.453 and 102.748 and 97.5209. The “cell viability” value ([1]; Concentration 0.00176818) was 107.1 and 103.949 and 100.448, the “cell viability” value ([1]; Concentration 0.00530453) was 108.398 and 94.7486 and 104.144 and the “cell viability” value ([1]; Concentration 0.0159136) was 99.903 and 106.159 and 104.247. The “cell viability” value ([1]; Concentration 0.0477407) was 84.8196 and 104.71 and 103.354, the “cell viability” value ([1]; Concentration 0.143222) was 100.147 and 105.205 and 99.7326 and the “cell viability” value ([1]; Concentration 0.429667) was 110.361 and 97.2541 and 107.93. For the same compound, the “cell viability” value ([1]; Concentration 1.289) was 106.321 and 101.904 and 97.9209, the “cell viability” value ([1]; Concentration 3.867) was 79.059 and 84.9366 and 87.8303 and the “CK1a Degradation Rate Constant” value ([2]; 0.111 uM) was 0.8978 λ/hour. For the same compound, the “CK1a Percent Maximum Degradation” value ([2]; 0.111 uM) was 64.66% and 62.79% and 62.08%, the “CK1a Degradation Rate Constant” value ([2]; 0.333 uM) was 1.129 λ/hour and the “CK1a Percent Maximum Degradation” value ([2]; 0.333 uM) was 74.90% and 74.15% and 73.38%. For the same compound, the “CK1a Degradation Rate Constant” value ([2]; 1 uM) was 1.27 λ/hour, the “CK1a Percent Maximum Degradation” value ([2]; 1 uM) was 79.97% and 79.25% and 79.09% and the “CK1a Degradation Rate Constant” value ([2]; 3 uM) was 1.321 λ/hour. For the same compound, the “CK1a Percent Maximum Degradation” value ([2]; 3 uM) was 81.84% and 80.21% and 81.34%, the “CK1a Degradation Rate Constant” value ([2]; 10 uM) was 1.331 λ/hour and the “CK1a Percent Maximum Degradation” value ([2]; 10 uM, replicates) was 81.24% and 82.05% and 83.80%. For the same compound, the Dmax at 0.111 µM [2] was 64.3%, the Dmax at 0.333 µM [2] was 75.2% and the Dmax at 1 µM [2] was 79.8%. The Dmax at 3 µM [2] was 80.9%, the Dmax at 10 µM ([2]; replicates) was 81.6% and the “CK1α degradation depth (HiBiT)” value ([2]; HEK293) was “near-complete degradation”. It also gave a DC50 [2] of 35 nM.

`O=C1CCC(N2Cc3cc(Nc4noc5ccccc45)ccc3C2=O)C(=O)N1` (stereo not drawn) [SJ3149] showed a viability at 0.000508 µM ([1]; Homo sapiens, MOLM-13, MOLM-13 CRBN KO, Conc 0.000508 uM, read-out: cell viability, dose-response replicate values) of 113%, a viability at 0.00152416 µM ([1]; Homo sapiens, MOLM-13, MOLM-13 CRBN KO, Conc 0.00152416 uM, read-out: cell viability, dose-response replicate values) of 116% and a viability at 0.00457247 µM ([1]; Homo sapiens, MOLM-13, MOLM-13 CRBN KO, Conc 0.00457247 uM, read-out: cell viability, dose-response replicate values) of 120%. The viability at 0.0137174 µM ([1]; Homo sapiens, MOLM-13, MOLM-13 CRBN KO, Conc 0.0137174 uM, read-out: cell viability, dose-response replicate values) was 115%, the viability at 0.0411523 µM ([1]; Homo sapiens, MOLM-13, MOLM-13 CRBN KO, Conc 0.0411523 uM, read-out: cell viability, dose-response replicate values) was 116% and the viability at 0.123457 µM ([1]; Homo sapiens, MOLM-13, MOLM-13 CRBN KO, Conc 0.123457 uM, read-out: cell viability, dose-response replicate values) was 113%. For the same compound, the viability at 0.37037 µM ([1]; Homo sapiens, MOLM-13, MOLM-13 CRBN KO, Conc 0.37037 uM, read-out: cell viability, dose-response replicate values) was 118%, the viability at 10 µM ([1]; Homo sapiens, MOLM-13, MOLM-13 CRBN KO, Conc 10 uM, read-out: cell viability, dose-response replicate values) was 80.2% and the “cell viability” value ([1]; Conc 0.000508 uM) was 112.4 and 118.871. For the same compound, the “cell viability” value ([1]; Conc 0.00152416 uM) was 110.951 and 120.77, the “cell viability” value ([1]; Conc 0.00457247 uM) was 113.675 and 126.396 and the “cell viability” value ([1]; Conc 0.0137174 uM) was 112.684 and 118.779. For the same compound, the “cell viability” value ([1]; Conc 0.0411523 uM) was 113.146 and 122.731, the “cell viability” value ([1]; Conc 0.123457 uM) was 114.423 and 122.764 and the “cell viability” value ([1]; Conc 0.37037 uM) was 115.466 and 130.548. The “cell viability” value ([1]; Conc 1.11111 uM) was 110.229 and 104.531 and 126.2, the “cell viability” value ([1]; Conc 3.33333 uM) was 104.594 and 98.0101 and 119.909 and the “cell viability” value ([1]; Conc 10 uM) was 76.5849 and 88.9707. For the same compound, the “CK1a Degradation Rate Constant” value ([2]; 0.111 uM) was 2.872 λ/hour, the “CK1a Percent Maximum Degradation” value ([2]; 0.111 uM) was 90.93% and 90.25% and 91.10% and the “CK1a Degradation Rate Constant” value ([2]; 0.333 uM) was 3.25 λ/hour. For the same compound, the “CK1a Percent Maximum Degradation” value ([2]; 0.333 uM) was 91.59% and 92.14% and 92.11%, the “CK1a Degradation Rate Constant” value ([2]; 1 uM) was 3.334 λ/hour and the “CK1a Percent Maximum Degradation” value ([2]; 1 uM) was 92.68% and 92.87% and 92.05%. For the same compound, the “CK1a Degradation Rate Constant” value ([2]; 3 uM) was 3.448 λ/hour, the “CK1a Percent Maximum Degradation” value ([2]; 3 uM) was 93.01% and 93.23% and 92.96% and the “CK1a Degradation Rate Constant” value ([2]; 10 uM) was 3.507 λ/hour. The “CK1a Percent Maximum Degradation” value ([2]; 10 uM, replicates) was 95.39% and 95.59% and 95.66%, the Dmax at 0.111 µM [2] was 90.6% and the Dmax at 0.333 µM [2] was 91.9%. For the same compound, the Dmax at 1 µM [2] was 92.6%, the Dmax at 3 µM [2] was 92.7% and the Dmax at 10 µM ([2]; replicates) was 95.4%. For the same compound, the “CK1α degradation depth (HiBiT)” value ([2]; HEK293) was “near-complete degradation”, the “CK1α degradation rate relative to SJ0040” value ([2]; HEK293) was about 2 fold and the “CK1α degradation rate relative to lenalidomide” value ([2]; HEK293) was about 10 fold. For the same compound, the DC50 [2] was 6 nM and the “CK1α degradation within the first 30 min” value ([2]; at most concentrations) was over 50%.
